Measured values taken from ChEMBL document CHEMBL1201862, “PubChem BioAssay data set” (2004).
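Briefly, cells in 96-well plates were exposed to five compound concentrations for 48 h, and endpoints were estimated by linear interpolation. GI50: concentration for 50% inhibition of growth.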 Active and inactive are the calls of the source. Rule as the data show it: active = GI50 up to about 1.1 µM and inactive = higher.

Experiments:
Assay in all cases: DTP human tumour cell line panel, 48 h
786-0 = test system: 786-0
A498 = test system: A498
A549 = test system: A549
ACHN = test system: ACHN
BT-549 = test system: BT-549
CCRF-CEM = test system: CCRF-CEM
COLO 205 = test system: COLO 205
DU-145 = test system: DU-145
EKVX = test system: EKVX
HCT-116 = test system: HCT-116
HCT-15 = test system: HCT-15
HL-60 = test system: HL-60
HOP-62 = test system: HOP-62
HOP-92 = test system: HOP-92
HT-29 = test system: HT-29
Hs-578T = test system: Hs-578T
IGROV-1 = test system: IGROV-1
K562 = test system: K562
KM12 = test system: KM12
M14 = test system: M14
MCF7 = test system: MCF7
MDA-MB-231 = test system: MDA-MB-231
MDA-MB-435 = test system: MDA-MB-435
MDA-N = test system: MDA-N
MOLT-4 = test system: MOLT-4
Malme-3M = test system: Malme-3M
NCI-H23 = test system: NCI-H23
NCI-H460 = test system: NCI-H460
NCI-H522 = test system: NCI-H522
NCI/ADR-RES = test system: NCI/ADR-RES
OVCAR-3 = test system: OVCAR-3
OVCAR-4 = test system: OVCAR-4
OVCAR-5 = test system: OVCAR-5
OVCAR-8 = test system: OVCAR-8
PC-3 = test system: PC-3
RPMI-8226 = test system: RPMI-8226
RXF 393 = test system: RXF 393
SF-268 = test system: SF-268
SF-295 = test system: SF-295
SF-539 = test system: SF-539
SK-MEL-28 = test system: SK-MEL-28
SK-MEL-2 = test system: SK-MEL-2
SK-OV-3 = test system: SK-OV-3
SN12C = test system: SN12C
SNB-19 = test system: SNB-19
SNB-75 = test system: SNB-75
SR = test system: SR
SW-620 = test system: SW-620
TK-10 = test system: TK-10
U-251 = test system: U-251
UACC-257 = test system: UACC-257
UACC-62 = test system: UACC-62
UO-31 = test system: UO-31
CAKI-1 = test system: CAKI-1
HCC 2998 = test system: HCC 2998
LOX IMVI = test system: LOX IMVI
NCI-H226 = test system: NCI-H226
SK-MEL-5 = test system: SK-MEL-5
T47D = test system: T47D

## C1=N\CCOCC/N=C/c2ccccc2OCc2cccc(n2)COc2ccccc2/1
786-0
  GI50: 10 µM (inactive)
A498
  GI50: > 25 µM (inactive)
A549
  GI50: > 25 µM (inactive)
ACHN
  GI50: 9.23 µM (inactive)
BT-549
  GI50: 6.76 µM (inactive)
CCRF-CEM
  GI50: 4.76 µM (inactive)
COLO 205
  GI50: 13 µM (inactive)
DU-145
  GI50: 6.61 µM (inactive)
EKVX
  GI50: 16.6 µM (inactive)
HCT-116
  GI50: 4.99 µM (inactive)
HCT-15
  GI50: 6.46 µM
HL-60
  GI50: 5.07 µM (inactive)
HOP-62
  GI50: 16.5 µM (inactive)
HOP-92
  GI50: 10.4 µM (inactive)
HT-29
  GI50: 5.22 µM (inactive)
Hs-578T
  GI50: 6.82 µM (inactive)
IGROV-1
  GI50: 6.3 µM (inactive)
K562
  GI50: 2.38 µM (inactive)
KM12
  GI50: 7.85 µM (inactive)
M14
  GI50: 8.87 µM (inactive)
MCF7
  GI50: 4.32 µM (inactive)
MDA-MB-231
  GI50: 8.93 µM (inactive)
MDA-MB-435
  GI50: 0.778 µM (active)
MDA-N
  GI50: 0.942 µM (active)
MOLT-4
  GI50: 4.91 µM (inactive)
Malme-3M
  GI50: 4.53 µM (inactive)
NCI-H23
  GI50: 12.5 µM (inactive)
NCI-H460
  GI50: > 25 µM (inactive)
NCI-H522
  GI50: 20.3 µM (inactive)
NCI/ADR-RES
  GI50: 3.39 µM (inactive)
OVCAR-3
  GI50: 3.51 µM (inactive)
OVCAR-4
  GI50: 6.03 µM (inactive)
OVCAR-5
  GI50: 5.26 µM (inactive)
OVCAR-8
  GI50: 6.38 µM (inactive)
PC-3
  GI50: 8.93 µM (inactive)
RPMI-8226
  GI50: 4.88 µM (inactive)
RXF 393
  GI50: 9.59 µM (inactive)
SF-268
  GI50: 9.4 µM (inactive)
SF-295
  GI50: 4.02 µM (inactive)
SF-539
  GI50: 3.2 µM (inactive)
SK-MEL-28
  GI50: 8.13 µM (inactive)
SK-MEL-2
  GI50: 8.63 µM (inactive)
SK-OV-3
  GI50: 11.2 µM (inactive)
SN12C
  GI50: 5.96 µM (inactive)
SNB-19
  GI50: 9.51 µM (inactive)
SNB-75
  GI50: 2.83 µM (inactive)
SR
  GI50: 0.977 µM (active)
SW-620
  GI50: 4.79 µM (inactive)
TK-10
  GI50: 6.27 µM (inactive)
U-251
  GI50: 6.04 µM (inactive)
UACC-257
  GI50: 8.11 µM (inactive)
UACC-62
  GI50: 2.27 µM (inactive)
UO-31
  GI50: 7.98 µM (inactive)

## O=C(c1ccccn1)c1nnn2ccccc12
786-0
  GI50: > 100 µM (inactive)
A498
  GI50: > 100 µM (inactive)
A549
  GI50: > 100 µM (inactive)
ACHN
  GI50: > 100 µM (inactive)
BT-549
  GI50: > 100 µM (inactive)
CAKI-1
  GI50: > 100 µM (inactive)
CCRF-CEM
  GI50: > 100 µM (inactive)
COLO 205
  GI50: > 100 µM (inactive)
DU-145
  GI50: > 100 µM (inactive)
EKVX
  GI50: > 100 µM (inactive)
HCC 2998
  GI50: > 100 µM (inactive)
HCT-116
  GI50: > 100 µM (inactive)
HCT-15
  GI50: > 100 µM
HL-60
  GI50: > 100 µM (inactive)
HOP-62
  GI50: > 100 µM (inactive)
HOP-92
  GI50: > 100 µM (inactive)
HT-29
  GI50: > 100 µM (inactive)
Hs-578T
  GI50: > 100 µM (inactive)
IGROV-1
  GI50: > 100 µM (inactive)
K562
  GI50: > 100 µM (inactive)
KM12
  GI50: > 100 µM (inactive)
LOX IMVI
  GI50: > 100 µM (inactive)
M14
  GI50: > 100 µM (inactive)
MCF7
  GI50: > 100 µM (inactive)
MDA-MB-231
  GI50: > 100 µM (inactive)
MDA-MB-435
  GI50: > 100 µM (inactive)
MDA-N
  GI50: > 100 µM (inactive)
MOLT-4
  GI50: > 100 µM (inactive)
Malme-3M
  GI50: > 100 µM (inactive)
NCI-H226
  GI50: > 100 µM (inactive)
NCI-H23
  GI50: > 100 µM (inactive)
NCI-H460
  GI50: > 100 µM (inactive)
NCI-H522
  GI50: > 100 µM (inactive)
OVCAR-3
  GI50: > 100 µM (inactive)
OVCAR-4
  GI50: > 100 µM (inactive)
OVCAR-5
  GI50: > 100 µM (inactive)
OVCAR-8
  GI50: > 100 µM (inactive)
PC-3
  GI50: > 100 µM (inactive)
RPMI-8226
  GI50: > 100 µM (inactive)
SF-268
  GI50: > 100 µM (inactive)
SF-295
  GI50: > 100 µM (inactive)
SF-539
  GI50: > 100 µM (inactive)
SK-MEL-28
  GI50: > 100 µM (inactive)
SK-MEL-2
  GI50: > 100 µM (inactive)
SK-MEL-5
  GI50: > 100 µM (inactive)
SK-OV-3
  GI50: > 100 µM (inactive)
SN12C
  GI50: > 100 µM (inactive)
SNB-19
  GI50: > 100 µM (inactive)
SNB-75
  GI50: > 100 µM (inactive)
SR
  GI50: > 100 µM (inactive)
SW-620
  GI50: > 100 µM (inactive)
T47D
  GI50: > 100 µM (inactive)
TK-10
  GI50: > 100 µM (inactive)
U-251
  GI50: > 100 µM (inactive)
UACC-257
  GI50: > 100 µM (inactive)
UACC-62
  GI50: > 100 µM (inactive)
